Measured values reported in ChEMBL document CHEMBL4219252, “Synthesis, antimycobacterial activity and influence on mycobacterial InhA and PknB of 12-membered cyclodepsipeptides” (Bioorg Med Chem, 2018).
Converted amounts (≈) assume the structure as drawn.

Tests used:
Assay type in all cases: functional, variant bovis BCG
[1] = tested on: Mycobacterium tuberculosis; assay: Antimycobacterial activity against wild type Mycobacterium bovis BCG harboring pATB45 after 48 hrs by resazurin microtiter assay
[2] = tested on: Mycobacterium tuberculosis; assay: Ratio of MIC for Mycobacterium bovis BCG harboring pATB45::inhA to MIC for Mycobacterium bovis BCG harboring pATB45
[3] = tested on: Mycobacterium tuberculosis; assay: Antimycobacterial activity against Mycobacterium bovis BCG harboring pATB45::inhA after 48 hrs by resazurin microtiter assay
[4] = Mycobacterium tuberculosis, variant bovis BCG, 48 h, read-out: MIC

Compound	MIC [1]	Ratio [2]	MIC [3]	MIC [1, 4]	MIC [3, 4]
C[C@H]1OC(=O)COC(=O)CCC(Cc2ccccc2)NC(=O)[C@H]1NC(=O)OC(C)(C)C (stereo in doubt; form 1)	62.5 µM (≈ 27.2 µg/mL)	2	125 µM (≈ 54.3 µg/mL)	–	–
C[C@H]1OC(=O)CCC(Cc2ccccc2)NC(=O)[C@@H](NC(=O)c2ncccc2O)[C@@H](C)OC1=O (some centres not stated)	–	1	–	62.5 µM (≈ 29.3 µg/mL)	62.5 µM (≈ 29.3 µg/mL)
NNC(=O)c1ccncc1 [ISONIAZID]	–	15.6	–	0.8 µM (≈ 0.11 µg/mL)	12.5 µM (≈ 1.71 µg/mL)
C[C@H]1OC(=O)COC(=O)CCC(Cc2ccccc2)NC(=O)[C@H]1NC(=O)OC(C)(C)C (stereo in doubt; form 2)	7.8 µM (≈ 3.39 µg/mL)	1	7.8 µM (≈ 3.39 µg/mL)	–	–
